Source: US12133899B2 (priority 2020, dated 2024)

Tests used:
[1] = in vivo; assay type: in vivo, rats; settings: rat; for drop of concentration in liver / drop of concentration in plasma: 2 weeks
Description: A single dose PK study of ALC-0315 and […] following intravenous (IV) bolus injection of a nanparticle formulation in rats was conducted to assess the PK and metabolism of lipid excipients ALC-0315 and ALC-0159.

[2] = assay type: in vitro ADME, mice, rats, monkeys, humans; settings: blood, microsomes, S9, hepatocytes; rat samples
Description: In vitro metabolism of ALC-0315 and ALC-0159 was evaluated in blood, liver microsomes, S9 fractions, and hepatocytes from mice, rats, monkeys, and humans. In vivo metabolism was examined in rat plasma, urine, faeces, and liver samples from the PK study. […] ALC-0315 and ALC-0159 are apparently metabolised by hydrolytic metabolism of the ester and amide functionalities, respectively, and this hydrolytic metabolism is observed across the species evaluated.

[3] = system: luciferase expression; assay type: in vivo, mice; settings: ALC-0315/DSPC/CHOL/ALC-0159 prototype; IV

Row | Compound | half-life ([1]; in vivo, IV bolus, read-out: apparent terminal t½ in plasma and liver) | eliminated unchanged in faeces [1] | drop of concentration in liver ([1]; IV bolus) | drop of concentration in plasma ([1]; IV bolus) | metabolism in vitro and in vivo [2] | unchanged material in urine or faeces [1] | apparent terminal t½ in plasma and liver ([1]; IV bolus) | in vivo potency of Luc RNA LNP vs internal benchmark ALC-0218 [3]
1 | CCCCCCCCCCCCCCN(CCCCCCCCCCCCCC)C(=O)COCCOCCOCCOCCOCCOCCOCCOCCOCCOCCOCCOCCOCCOCCOCCOCCOCCOCCOCCOCCOCCOCCOCCOCCOCCOCCOCCOCCOCCOCCOCCOCCOCCOCCOCCOCCOCCOCCOCCOCCOCCOCCOCCOCCOCCOC [ALC-0159, 2-[(polyethylene glycol)-2000]-N,N-ditetradecylacetamide] | 48 to 72 h | 50% | > 250 fold | approximately 8000 fold | relatively slowly |  |  | 
2 | ((4-hydroxybutyl)azanediyl)bis(hexane-6,1-diyl)bis(2-hexyldecanoate) [ALC-0315] |  |  | ~4 fold | approximately 7000 fold | relatively slowly | little to no unchanged material was detected | 140 to 190 h | improved potency
